Reference: US8133909B2 (Hoffmann-La Roche Inc., priority 2008, dated 2012)
Counter-ions that a name gives are not always drawn.

Molecular target: T1, human orexin-2 (hOX2) receptors (Homo sapiens, UniProt O43614)
T1 construct: expressed in transfected cells
T1 sequence (O43614 1-444): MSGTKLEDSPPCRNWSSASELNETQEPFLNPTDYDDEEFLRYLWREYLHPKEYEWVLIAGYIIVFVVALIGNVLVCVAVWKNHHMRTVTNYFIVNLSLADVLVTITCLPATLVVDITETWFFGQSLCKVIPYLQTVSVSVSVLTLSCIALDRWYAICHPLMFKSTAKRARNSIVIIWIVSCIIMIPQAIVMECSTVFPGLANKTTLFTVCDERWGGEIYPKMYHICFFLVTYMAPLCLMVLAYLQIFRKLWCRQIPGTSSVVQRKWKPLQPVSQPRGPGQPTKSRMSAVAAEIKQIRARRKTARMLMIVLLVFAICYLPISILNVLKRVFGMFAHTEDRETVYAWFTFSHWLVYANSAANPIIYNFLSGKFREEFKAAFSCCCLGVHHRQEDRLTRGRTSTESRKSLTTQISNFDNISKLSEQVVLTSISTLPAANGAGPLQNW
Experiment: Intracellular Ca2+ mobilization assay (FLIPR), antagonism of orexin-A
Assay type: cell-based
Details: CHO(dHFr-) cells stably expressing hOX2; orexin-A at EC80 as agonist; antagonist applied 25 min before; Kb=IC50/(1+[A]/EC50); read-out: Kb (μM) OX2R (human)
Description: Intracellular Ca^2+ Mobilization Assay
The Chinese Hamster Ovary (dHFr—) mutant cell line stably expressing human orexin-1 (hOX1) or human orexin-2 (hOX2) receptors were maintained in Dulbecco's Modified Eagle Medium (1X) with GlutaMax™ 1, 4500 mg/L D-Glucose and Sodium Pyruvate (Catalog No. 31966-021, Invitrogen, Carlsbad, Calif.), 5% dialyzed fetal calf serum (Catalog No. 26400-044), 100 μg/ml penicillin and 100 μg/ml streptomycin. The cells were seeded at 5×10^4 cells/well in the poly-D-lysine treated, 96-well, black/clear-bottomed plates (Catalog No. BD356640, BD Biosciences, Palo Alto, Calif.). 24 h later, the cells were loaded for 1 h at 37° C. with 4 μM Flou-4 acetoxymethyl ester (Catalog No. F-14202, Molecular Probes, Eugene, Oreg.) in FLIPR buffer (1×HBSS, 20 mM HEPES, 2.5 mM Probenecid). Hanks' Balanced Salt Solution (HBSS) (10×) (catalog No. 14065-049) and HEPES (1M) (catalog No. 15630-056) were purchased from Invitrogen, Carlsbad, Calif. Probenecid (250 mM) (catalog No. P8761) was from Sigma, Buchs, Switzerland. The cells were washed five times with FLIPR buffer to remove excess dye and intracellular calcium mobilization, [Ca^2+]i were measured using a Fluorometric Imaging Plate Reader (FLIPR-96, Molecular Devices, Menlo Park, Calif.) as described previously (Malherbe et al., Mol. Pharmacol., 64, 823-832, 2003). Orexin A (catalog No. 1455, Toris Cookson Ltd, Bristol, UK) was used as agonist. Orexin A (50 mM stock solution in DMSO) was diluted in FLIPR buffer +0.1% BSA. The EC50 and EC80 values of orexin-A were measured daily from standard agonist concentration-response curves in CHO(dHFr—)—OX1R and —OX2R cell lines. All compounds were dissolved in 100% DMSO. Inhibition curves were determined by addition of 11 concentrations (0.0001-10 μM) of inhibitory compounds and using EC80 value of orexin-A as agonist (a concentration which gave 80% of max agonist response, determined daily). The antagonists were applied 25 min (incubation at 37° C.) before the application of the agonist. Responses were measured as peak increase in fluorescence minus basal, normalized to the maximal stimulatory effect induced by EC80 value of orexin-A or orexin- B. Inhibition curves were fitted according to the Hill equation: y=100/(1+(x/IC50)^nH), where nH=slope factor using Excel-fit 4 software (Microsoft). Kb values were calculated according to the following equation Kb=IC50/(1+[A]/EC50) where A is the concentration of agonist added which is very close to agonist EC80 value, and IC50 and EC50 values were derived from the antagonist inhibition and orexin-A or B agonist curves, respectively.

| SMILES | Kb [µM] |
| --- | --- |
| Cc1ccc(N(CCc2ccc(C(F)(F)F)cn2)C(=O)[C@@H](N)c2ccccc2)cc1C [Example 25, (S)-2-Amino-N-(3,4-dimethyl-phenyl)-2-phenyl-N-[2-(5-trifluoromethyl-pyridin-2-yl)-ethyl]-acetamide hydrochloride] | 0.0008 |
| CCn1nc(C)c2cc(N(CCc3ccc(C(F)(F)F)nc3)C(=O)[C@@H](O)c3ccccc3)ccc21 [Example 48, (S)—N-(1-Ethyl-3-methyl-1H-indazol-5-yl)-2-hydroxy-2-phenyl-N-[2-(6-trifluoromethyl-pyridin-3-yl)-ethyl]-acetamide] | 0.07 |
| Cc1ccc(N(CCc2ccc(C(F)(F)F)nc2)C(=O)[C@@H](NC2COC2)c2ccccc2)cc1C [Example 57, (S)—N-(3,4-Dimethyl-phenyl)-2-(oxetan-3-ylamino)-2-phenyl-N-[2-(6-trifluoromethyl-pyridin-3-yl)-ethyl]-acetamide] | 0.0016 |
| COc1ccc(N(CCc2ccc(C(F)(F)F)nc2)C(=O)[C@@H](N)c2ccccc2)cc1OC [Example 5, (S)-2-Amino-N-(3,4-dimethoxy-phenyl)-2-phenyl-N-[2-(6-trifluoromethyl-pyridin-3-yl)-ethyl]-acetamide] | 0.0005 |
| Cc1ccc(CCN(C(=O)[C@@H](N)c2ccccc2)c2ccc(C)c(C)c2)nc1 [Example 21, (S)-2-Amino-N-(3,4-dimethyl-phenyl)-N-[2-(5-methyl-pyridin-2-yl)-ethyl]-2-phenyl-acetamide hydrochloride] | 0.0047 |
| Cc1csc(CCN(C(=O)[C@@H](N)c2ccccc2)c2ccc(C)c(C)c2)n1 [Example 67, (S)-2-Amino-N-(3,4-dimethyl-phenyl)-N-[2-(4-methyl-thiazol-2-yl)-ethyl]-2-phenyl-acetamide hydrochloride] | 0.073 |
| Cc1ccc(N(CCc2ccc(C(F)(F)F)nc2)C(=O)[C@@H](N)c2ccccc2)cc1C [Example 1, (S)-2-Amino-N-(3,4-dimethyl-phenyl)-2-phenyl-N-[2-(6-trifluoromethyl-pyridin-3-yl)-ethyl]-acetamide] | 0.0007 |
| Cc1ccc(N(CCc2ccc(C(F)(F)F)nc2)C(=O)C(C)(O)c2ccccc2)cc1C (racemic) [Example 27, (R,S)—N-(3,4-Dimethyl-phenyl)-2-hydroxy-2-phenyl-N-[2-(6-trifluoromethyl-pyridin-3-yl)-ethyl]-propionamide] | 0.068 |
| Cc1ccc(N(CCc2ccc(C(F)(F)F)nc2)C(=O)[C@@H](NC2(CN)COC2)c2ccccc2)cc1C [Example 8, (S)-2-(3-Aminomethyl-oxetan-3-ylamino)-N-(3,4-dimethyl-phenyl)-2-phenyl-N-[2-(6-trifluoromethyl-pyridin-3-yl)-ethyl]acetamide] | 0.0263 |
| COc1cc(N(CCc2ccc(C(F)(F)F)nc2)C(=O)[C@@H](O)c2ccccc2)ccc1C [Example 19, (S)-2-Hydroxy-N-(3-methoxy-4-methyl-phenyl)-2-phenyl-N-[2-(6-trifluoromethyl-pyridin-3-yl)-ethyl]-acetamide] | 0.0109 |
| O=C([C@@H](O)c1ccccc1)N(CCc1ccc(C(F)(F)F)nc1)c1cnc2ccccc2c1 [Example 49] | 0.0361 |
| Cc1cc(CCN(C(=O)[C@@H](O)c2ccccc2)c2ccc(C)c(C)c2)on1 [Example 70, (S)—N-(3,4-Dimethyl-phenyl)-2-hydroxy-N-[2-(3-methyl-isoxazol-5-yl)-ethyl]-2-phenyl-acetamide] | 0.0863 |
| Cc1ccc(N(CCc2ccc(C(F)(F)F)nc2)C(=O)C(=O)c2ccccc2)cc1C [Example 20, N-(3,4-Dimethyl-phenyl)-2-oxo-2-phenyl-N-[2-(6-trifluoromethyl-pyridin-3-yl)-ethyl]-acetamide] | 0.0916 |
| COc1ccc(N(CCc2ccc(C(F)(F)F)cc2)C(=O)C(N)c2ccccc2)cn1 (racemic) [Example 36, (R,S)-2-Amino-N-(6-methoxy-pyridin-3-yl)-2-phenyl-N-[2-(4-trifluoromethyl-phenyl)-ethyl]-acetamide] | 0.061 |

Other lines, results leading:

| Kb [µM] | SMILES |
| --- | --- |
| 0.0378 | O=C([C@@H](O)c1ccc(F)cc1)N(CCc1ccc(C(F)(F)F)cn1)c1ccc2c(c1)CCC2 [Example 86, (S)-2-(4-Fluoro-phenyl)-2-hydroxy-N-indan-5-yl-N-[2-(5-trifluoromethyl-pyridin-2-yl)-ethyl]-acetamide] |
| 0.0249 | Cc1n[nH]c2ccc(N(CCc3ccc(C(F)(F)F)nc3)C(=O)[C@@H](O)c3ccc(F)cc3)cc12 [Example 106, (S)-2-(4-Fluoro-phenyl)-2-hydroxy-N-(3-methyl-1H-indazol-5-yl)-N-[2-(6-trifluoromethyl-pyridin-3-yl)-ethyl]-acetamide] |
| 0.0078 | Cn1ccc2ccc(N(CCc3ccc(C(F)(F)F)cn3)C(=O)C(O)c3ccc(F)cc3)cc21 (racemic) [Example 54, (R,S)-2-(4-Fluoro-phenyl)-2-hydroxy-N-(1-methyl-1H-indol-6-yl)-N-[2-(5-trifluoromethyl-pyridin-2-yl)-ethyl]-acetamide] |
| 0.0026 | COc1cc(N(CCc2ccc(C(F)(F)F)nc2)C(=O)[C@@H](O)c2ccc(F)cc2)ccc1C [Example 61, (S)-2-(4-Fluoro-phenyl)-2-hydroxy-N-(3-methoxy-4-methyl-phenyl)-N-[2-(6-trifluoromethyl-pyridin-3-yl)-ethyl]-acetamide] |
| 0.0481 | Cc1ccc(N(CCc2ccc(C(F)(F)F)cn2)C(=O)C(O)c2ccc(F)cc2)cc1F (racemic) [Example 78, (R,S)—N-(3-Fluoro-4-methyl-phenyl)-2-(4-fluoro-phenyl)-2-hydroxy-N-[2-(5-trifluoromethyl-pyridin-2-yl)-ethyl]-acetamide] |
| 0.0197 | Cc1cc(N(CCc2ccc(C(F)(F)F)cn2)C(=O)[C@@H](O)c2ccc(F)cc2)ccc1F [Example 81, (S)—N-(4-Fluoro-3-methyl-phenyl)-2-(4-fluoro-phenyl)-2-hydroxy-N-[2-(5-trifluoromethyl-pyridin-2-yl)-ethyl]-acetamide] |
| 0.0216 | O=C(C(O)c1ccc(F)cc1)N(CCc1ccc(C(F)(F)F)cn1)c1ccc(Cl)c(CO)c1 (racemic) [Example 98, (R,S)—N-(4-Chloro-3-hydroxymethyl-phenyl)-2-(4-fluoro-phenyl)-2-hydroxy-N-[2-(5-trifluoromethyl-pyridin-2-yl)-ethyl]-acetamide] |
| 0.0285 | COC(=O)c1cc(N(CCc2ccc(C(F)(F)F)cn2)C(=O)C(O)c2ccc(F)cc2)ccc1Cl (racemic) [Example 99, (R,S)-2-Chloro-5-{[2-(4-fluoro-phenyl)-2-hydroxy-acetyl]-[2-(5-trifluoromethyl-pyridin-2-yl)-ethyl]-amino}-benzoic acid methyl ester] |
| 0.013 | O=C(C(O)c1ccc(F)cc1)N(CCc1ccc(C(F)(F)F)cn1)c1ccc2c(c1)CCO2 (racemic) [Example 75, (R,S)—N-(2,3-Dihydro-benzofuran-5-yl)-2-(4-fluoro-phenyl)-2-hydroxy-N-[2-(5-trifluoromethyl-pyridin-2-yl)-ethyl]-acetamide] |
| 0.0276 | CCc1cc(N(CCc2ccc(C(F)(F)F)cn2)C(=O)C(O)c2ccc(F)cc2)ccc1Cl (racemic) [Example 97, (R,S)-N-(4-Chloro-3-ethyl-phenyl)-2-(4-fluoro-phenyl)-2-hydroxy-N-[2-(5-trifluoromethyl-pyridin-2-yl)-ethyl]-acetamide] |
| 0.0236 | COc1cc(N(CCc2ccc(C(F)(F)F)cn2)C(=O)C(O)c2ccc(F)cc2)ccc1Cl (racemic) [Example 79, (R,S)—N-(4-Chloro-3-methoxy-phenyl)-2-(4-fluoro-phenyl)-2-hydroxy-N-[2-(5-trifluoromethyl-pyridin-2-yl)-ethyl]-acetamide] |
